# Patent publication US20220274979A1 (Bayer Pharma Aktiengesellschaft, priority 2018, published 2022)
# Key:
# [1] = target: T1, hSOS1 (hSOS1-mediated loading of hK-RasG12C-GDP) (Homo sapiens, UniProt Q07889); assay: Biochemical Assay 3: hK-RasG12C activation assay by hSOS1 (loading with fluorescent GTP analog, HTRF); settings: no GTP
# T1 construct: hSOS1 (amino acid 564-1049); made in house; host or cells: E. coli BL21 (DE3)
# T1 sequence (Q07889 with tags, fused parts or gaps): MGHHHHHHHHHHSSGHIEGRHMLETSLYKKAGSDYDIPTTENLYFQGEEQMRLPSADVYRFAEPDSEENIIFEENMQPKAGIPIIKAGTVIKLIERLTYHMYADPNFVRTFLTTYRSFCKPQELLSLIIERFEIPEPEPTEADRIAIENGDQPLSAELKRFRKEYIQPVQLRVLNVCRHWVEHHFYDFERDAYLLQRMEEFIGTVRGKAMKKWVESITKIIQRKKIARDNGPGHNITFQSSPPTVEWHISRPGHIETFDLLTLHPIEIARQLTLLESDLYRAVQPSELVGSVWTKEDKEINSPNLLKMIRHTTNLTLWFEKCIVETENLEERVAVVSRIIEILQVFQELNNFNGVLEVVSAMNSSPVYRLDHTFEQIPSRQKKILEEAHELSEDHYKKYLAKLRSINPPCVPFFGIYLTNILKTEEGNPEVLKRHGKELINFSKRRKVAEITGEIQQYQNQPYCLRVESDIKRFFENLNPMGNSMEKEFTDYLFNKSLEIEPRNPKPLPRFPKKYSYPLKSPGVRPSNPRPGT
# Text: Biochemical Assay 3: hK-RasG12C Activation Assay by hSOS1
# K-Ras is a small GTPase that can bind GDP and GTP. The guanine nucleotide exchange factor SOS1 catalyzes the activation of K-Ras by promoting the exchange of GDP to GTP. SOS1 binds to K-Ras-GDP thereby opening the GDP-binding pocket to facilitate GDP release. Rebinding of excess nucleotide leads to dissociation of the K-Ras-SOS1 intermediate complex leaving K-Ras loaded with the nucleotide.
# This assay quantifies human SOS1-(hSOS1-)mediated loading of human K-Ras^G12C-GDP (hK-RasG12C-GDP) with a fluorescent GTP-analog. Detection of successful loading is achieved by measuring homogenous time-resolved fluorescence resonance energy transfer (HTRF) from antiGST-Terbium (FRET donor) bound to GST-hK-RasG12C (see below) to the loaded fluorescent GTP analog (FRET-acceptor).
# The fluorescent GTP-analog EDA-GTP-Dy647P1 (2′/3′-O-(2-Aminoethyl-carbamoyl)-guanosine-5′-triphosphate labelled with Dy647P1 (Dyomics GmbH, Germany)) was synthesized by Jena Biosciences GmbH (Germany) and supplied as a 1 mM aqueous solution.
# (§1) The assay buffer contained 10 mM HEPES pH 7.4 (Applichem), 150 mM NaCl (Sigma), 5 mM MgCl2 (Sigma), 1 mM DTT (Thermofisher), 0.05% BSA Fraction V, pH 7.0, (ICN Biomedicals), 0.0025% (v/v) Igepal (Sigma).
# Concentrations of protein batches used were optimized to be within the linear range of the HTRF signal. A hRas working solution was prepared in assay buffer containing typically 100 nM GST-hK-RasG12C and 2 nM antiGST-Tb (Cisbio, France). A hSOS1 working solution was prepared in assay buffer containing typically 20 nM hSOS1 and 200 nM EDA-GTP-Dy647P1. An inhibitor control solution was prepared in assay buffer containing 200 nM EDA-GTP-Dy647P1 without hSOS1.
# (§2) Fifty nl of a 100-fold concentrated solution of the test compound in DMSO were transferred into a black microtiter test plate (384 or 1536, Greiner Bio-One, Germany) For this, either a Hummingbird liquid handler (Digilab, Mass., USA) or an Echo acoustic system (Labcyte, Calif., USA) was used.
# (§3) All steps of the assay were performed at 20° C. A volume of 2.5 μl of the hRas working solution was added to all wells of the test plate using a Multidrop dispenser (Thermo Labsystems). After 10 min. preincubation, 2.5 μl of the hSOS1 working solution were added to all wells except for those wells at the side of the test plate that were subsequently filled with 2.5 μl of the inhibitor control solution. After 30 mM incubation the fluorescence was measured with a Pherastar (BMG, Germany) using the HTRF module (excitation 337 nm, emission 1: 620 nm, emission 2:665 nm).
# (§4) IC50 values were calculated by 4-Parameter fitting using a commercial software package (Genedata Screener, Switzerland).
# [2] = target: T2, hSOS1 (hSOS1-mediated nucleotide exchange of hK-RasG12C) (Homo sapiens, UniProt Q07889); assay: Biochemical Assay 2: hK-RasG12C activation assay by hSOS1 at high GTP concentration (HTRF nucleotide exchange); settings: high GTP (50 μM GTP)
# T2 construct: hSOS1 (amino acid 564-1049); made in house; host or cells: E. coli BL21 (DE3)
# T2 sequence (Q07889 with tags, fused parts or gaps): T1 sequence (Q07889 with tags, fused parts or gaps)
# Text: Biochemical Assay 2: hK-RasG12C Activation Assay by hSOS1 at High GTP Concentration
# This assay quantifies human SOS1-mediated nucleotide exchange of human K-Ras^G12C (hK-RasG12C) preloaded with a fluorescent […] and in presence of an excess of free GTP. Loaded hK-RasG12C generates a high HTRF-signal by energy transfer from antiGST-Terbium (FRET donor) bound to hK-Ras to the loaded fluorescent GDP analog (FRET-acceptor). hSOS1 activity exchanges the fluorescent GDP for non-fluorescent GTP and therefore leads to a reduction of the HTRF signal.
# The fluorescent GDP-analog EDA-GDP-Dy647P1 (2′/3′-O-(2-Aminoethyl-carbamoyl)-guanosine-5′-diphosphate labelled with Dy647P1 (Dyomics GmbH, Germany)) was synthesized by Jena Biosciences GmbH (Germany) and supplied as a 1 mM aqueous solution.
# Concentrations of protein batches used were optimized to be within the linear range of the HTRF signal.
# Addition of 20 μl 1 M MgCl2 (Sigma) to final 40 mM and store on ice. Purification into buffer (10 mM HEPES pH 7.4 (Applichem), 150 mM NaCl (Sigma), 5 mM MgCl2 (Sigma)) by use of a PD-Minitrap desalting column (GE Healthcare). Concentration of 1 ml purified hK-Ras-GDP-Dy647 is approx. 4-5 μM.
# as §1
# A Ras working solution was prepared in assay buffer containing typically 80 nM loaded GST-hK-RasG12C-EDA-GDP-Dy647P1 and 2 nM antiGST-Tb (Cisbio, France).
# Alternatively, the inhibitor control solution was prepared by supplementing the hSOS1 working solution with 20 μM of 6,7-dimethoxy-N-[(1R)-1-(1-naphthyl)ethyl]quinazolin-4-amine which was used to calibrate the assay.
# as §2
# as §3, with “Ras” for “hRas”, “2” for “10”, “20 min.” for “30 mM”, “1:620” for “1: 620”
# as §4
SMILES,IC50 [1] [nM],IC50 [2] [nM]
"CC(=O)NC1CCN(c2cc3c(N[C@H](C)c4cccc(Br)c4)nc(C)nc3cn2)C1 (mixture of isomers) [Example 42, N-[1-(4-{[(1R)-1-(3-bromophenyl)ethyl]amino}-2-methylpyrido[3,4-d]pyrimidin-6-yl)pyrrolidin-3-yl]acetamide]",366,215
"Cc1nc(NC(C)c2ccc(-c3ccccc3CN(C)C)s2)c2cc(C3CCN(C)C3=O)ncc2n1 (mixture of isomers) [Example 69, 3-(4-{[1-(5-{2-[(dimethylamino)methyl]phenyl}thiophen-2-yl)ethyl]amino}-2-methylpyrido[3,4-d]pyrimidin-6-yl)-1-methylpyrrolidin-2-one]",141,98.3
"Cc1nc(NC(C)c2ccc(-c3ccccc3CN(C)C)s2)c2cc(C3(O)CCN(C)C3=O)ncc2n1 (mixture of isomers) [Example 85, 3-(4-{[1-(5-{2-[(dimethylamino)methyl]phenyl}thiophen-2-yl)ethyl]amino}-2-methylpyrido[3,4-d]pyrimidin-6-yl)-3-hydroxy-1-methylpyrrolidin-2-one]",212,214
"CCOc1cc2c(NC(C)c3cccc4sccc34)nc(C)nc2cn1 (centres unmarked) [Example 3, N-[1-(1-benzothiophen-4-yl)ethyl]-6-ethoxy-2-methylpyrido[3,4-d]pyrimidin-4-amine]",355,262
"COc1cc2c(NC(C)c3cccc4sccc34)nc(C)nc2cn1 (centres unmarked) [Example 4, N-[1-(1-benzothiophen-4-yl)ethyl]-6-methoxy-2-methylpyrido[3,4-d]pyrimidin-4-amine]",555,423
"CCOc1cc2c(N[C@H](C)c3cccc(Br)c3)nc(C)nc2cn1 [Example 5, N-[(1R)-1-(3-bromophenyl)ethyl]-6-ethoxy-2-methylpyrido[3,4-d]pyrimidin-4-amine]",2150,994
CCOc1cc2c(N[C@H](C)c3cccc(Cl)c3)nc(C)nc2cn1 [Example 6],1690,1120
"CCOc1cc2c(N[C@H](C)c3cccc(S(C)(=O)=O)c3)nc(C)nc2cn1 [Example 7, 6-ethoxy-2-methyl-N-{(1R)-1-[3-(methylsulfonyl)phenyl]ethyl}pyrido[3,4-d]pyrimidin-4-amine]",2380,1300
COc1cc2c(N[C@H](C)c3ccc(F)c(Cl)c3)nc(C)nc2cn1 [Example 8],> 20000,4890
Cc1nc(N[C@H](C)c2ccc(F)cc2)c2cc(F)ncc2n1 [Example 9],> 20000,17900
"Cc1nc(N[C@H](C)c2ccc(F)cc2)c2cc(OCC3CCOCC3)ncc2n1 [Example 11, N-[1R)-1-(4-fluorophenypethyl]-2-methyl-6-(tetrahydro-2H-pyran-4-ylmethoxy)-pyrido[3,4-d]pyrimidin-4-amine]",2490,1960
COc1cc2c(N[C@H](C)c3ccc(F)c(C4CC4)c3)nc(C)nc2cn1 [Example 12],8170,6450
"CCOc1cc2c(N[C@H](C)c3ccc(Br)cc3)nc(C)nc2cn1 [Example 13, N-[(1R)-1-(4-bromophenyl)ethyl]-6-ethoxy-2-methylpyrido[3,4-d]pyrimidin-4-amine]",7980,1780
"COc1cc2c(NC(C)c3cccc4c3cnn4C)nc(C)nc2cn1 (centres unmarked) [Example 14, 6-methoxy-2-methyl-N-[1-(1-methyl-1H-indazol-4-yl)ethyl]pyrido[3,4-d]pyrimidin-4-amine]",12600,1950
Cc1nc(N[C@H](C)c2ccc(F)cc2)c2cc(OC(C)C)ncc2n1 [Example 15],8790,1900
"COc1cc2c(NC(C)c3cccc4nn(C)cc34)nc(C)nc2cn1 (centres unmarked) [Example 17, 6-methoxy-2-methyl-N-[1-(2-methyl-2H-indazol-4-yl)ethyl]pyrido[3,4-d]pyrimidin-4-amine]",≥ 40000,7730
"CCOc1cc2c(N[C@H](C)c3ccc(C#N)cc3)nc(C)nc2cn1 [Example 18, 4-{(1R)-1-[(6-ethoxy-2-methylpyrido[3,4-d]pyrimidin-4-yl)amino]ethyl}benzonitrile]",4540,1010
"Cc1nc(N[C@H](C)c2cccc(Br)c2)c2nc(OCc3ccccc3)ncc2n1 [Example 20, 6-(benzyloxy)-N-[(1R)-1-(3-bromophenyl)ethyl]-2-methylpyrimido[5,4-d]pyrimidin-4-amine]",≥ 40000,> 20000
Cc1nc(N[C@H](C)c2cccc(Br)c2)c2nc(N(C)C)ncc2n1 [Example 21],≥ 40000,> 20000
"Cc1nc(N[C@H](C)c2cccc(Br)c2)c2nc(N3CCOCC3)ncc2n1 [Example 22, N-[(1R)-1-(3-bromophenyl)ethyl]-2-methyl-6-(morpholin-4-yl)pyrimido[5,4-d]pyrimidin-4-amine]",12500,1960
"CCOc1ncc2nc(C)nc(N[C@H](C)c3cccc(Br)c3)c2n1 [Example 23, N-[(1R)-1-(3-bromophenyl)ethyl]-6-ethoxy-2-methylpyrimido[5,4-d]pyrimidin-4-amine]",3280,4450
"COc1ncc2nc(C)nc(N[C@H](C)c3cccc(Br)c3)c2n1 [Example 24, N-[(1R)-1-(3-bromophenyl)ethyl]-6-methoxy-2-methylpyrimido[5,4-d]pyrimidin-4-amine]",> 20000,9710
